The subject of series [1] is Trypanosoma cruzi Y (DTU TcII) epimastigotes. As to the kind of experiment: Y strain epimastigote susceptibility assay (resazurin). It counts as cell-based. Conditions: T. cruzi Y strain epimastigotes, 48 h, mean ± SD, n = 3. In general terms: Alamar Blue is a resazurin reagent that responds to reducing activity.
Series [2] concerns Trypanosoma cruzi CL-B5 (DTU TcVI) epimastigotes. As to the kind of experiment: CL-B5 lacZ epimastigote susceptibility assay (CPRG). It counts as cell-based. Conditions: T. cruzi CL-B5 lacZ epimastigotes, 72 h, mean ± SD, n = 3.
Another series concerns L929 cells. The experiment in a line: Unspecific cytotoxicity assay on L929 fibroblasts (resazurin). Conditions: mean ± SD, n = 3; for CC50 at 72 h: mouse. It counts as cell-based.
Series [3] concerns Trypanosoma cruzi CL-B5 amastigotes. The experiment in a line: CL-B5 lacZ intracellular amastigote susceptibility assay (CPRG). Conditions: intracellular amastigotes in L929 cells, 7 days, mean ± SD, n = 3. It counts as cell-based.
A further series concerns J774 cells. As to the kind of experiment: Unspecific cytotoxicity assay on J774 macrophages (resazurin). Format: cell-based, mouse. As to conditions: mean ± SD, n = 3; for CC50 at 48 h: mouse.
For a further series, the system named is Trichomonas vaginalis. The experiment in a line: Trichomonacidal in vitro assay (resazurin). Format: cell-based. Conditions: isolate JH31A#4, 24 h, brackets: 95% confidence interval.
A further series relates to Vero cells. As to the kind of experiment: Unspecific cytotoxicity assay in Vero cells (resazurin). As to conditions: Vero cells, 24 h; brackets: 95% confidence interval. Format: cell-based, African green monkey.

Results on 4 molecules are retold here after PMC8881069, “Thio- and selenosemicarbazones as antiprotozoal agents against Trypanosoma cruzi and Trichomonas vaginalis” (Journal of Enzyme Inhibition and Medicinal Chemistry, 2022).

With `O=C(Cn1ccnc1[N+](=O)[O-])NCc1ccccc1` [Benznidazole, benznidazole, reference compound], the IC50 (commonly the concentration that gives 50% inhibition) in series [1] (Trypanosoma cruzi) amounted to 22.7 ± 1.82 µM; in series [2] (Trypanosoma cruzi), 25.3 ± 1.63 µM; in series [3] (Trypanosoma cruzi, 168 h), 0.47 ± 0.09 µM. The CC50 (usually the concentration giving 50% cytotoxicity) at 72 h in the series on L929 cells is above 256 µM. The molecule further yielded a CC50 at 48 h in the series on J774 cells above 256 µM.
On to `NNC(=S)Nc1cccc2ccccc12` [Compound 31], for which the IC50 was determined as 33.6 ± 5.72 µM in series [1], 28.7 ± 4.61 µM in series [2], 30.2 µM with Trichomonas vaginalis and 39.7 ± 9.91 µM in series [3]. Moreover, the results for the CC50 with L929 cells (72 h), in the series on Vero cells and in the series with J774 cells (48 h) were above 256 µM, above 300 µM and above 256 µM, respectively.
On to `COc1ccc(/C=N/NC(=S)Nc2ccc(OC)cc2)cc1` [Compound 43], for which the half-maximal inhibitory concentration (IC50) in series [1] (Trypanosoma cruzi) worked out at 55.6 ± 16.3 µM; in series [2] (Trypanosoma cruzi) it was 26.8 ± 2.68 µM; in the series on Trichomonas vaginalis (Trichomonas vaginalis, 24 h), 258 µM; in series [3] (Trypanosoma cruzi, 168 h) it was 39 ± 14.3 µM. In the series with L929 cells, this molecule returned a half-maximal cytotoxic concentration (CC50) at 72 h above 256 µM. This molecule also displayed a CC50 at 48 h in the series on J774 cells above 256 µM.
Regarding `COc1ccc(/C=N/NC(=S)Nc2cccc([N+](=O)[O-])c2)cc1` [Compound 57], the half-inhibitory concentration (IC50) in series [1] (Trypanosoma cruzi) was above 256 µM; in series [2] (Trypanosoma cruzi), 23 ± 6.33 µM; in the series on Trichomonas vaginalis (Trichomonas vaginalis, 24 h), 51.9 µM; in series [3] (Trypanosoma cruzi, 168 h), 22.3 ± 4.2 µM. In the series on L929 cells, the CC50 at 72 h was above 256 µM. In the series on J774 cells, this molecule registered a cytotoxic concentration (CC50) at 48 h above 256 µM.
